Data taken from patent US10730848B2 (priority 2013, dated 2020).
“Also recorded” adds a separate entry of the source. Read-outs that look alike come from different tables or passages of the source.

What was measured:
[1] = test system: LT; conditions: read-out: IC50 of previously reported toxin entry inhibitors; cited from earlier work
[2] = test system: EGFR; format: cell-based
[3] = test system: acidic compartments; format: cell-based
[4] = test system: anthrax lethal toxin (LT); format: cell-based
[5] = test system: anthrax lethal toxin (LT); assay: cells; format: cell-based, murine
[6] = test system: influenza A/WSN/33 virus; format: cell-based
[7] = test system: F. tularensis LVS; format: cell-based
[8] = test system: THP-1 cells; format: cell-based, human
[9] = Mus musculus, RAW264.7, read-out: IC50 (In uM)
[10] = Mus musculus, RAW264.7, read-out: IC50, inhibition of LT-induced cell death

**Q.** Which results are given for `Cl.N` [ammonium chloride, reference compound]?
**A.** IC50 [1]: 5000 µM; EGFR stabilization at 60 minutes [2]: inhibit EGF-induced receptor degradation; cell-associated Lysotracker Red fluorescence (neutralization of acidic compartments) [3]: markedly decreased

**Q.** With `Cc1cccc(C)c1NC(=O)N/N=C/c1ccc(N=[N+]=[N-])cc1` [Compound 4, N^1-(4-AZIDOBENZYLIDENE)-N^4-(2,6-DIMETHYLPHENYL)SEMICARBAZONE] as the compound, how does the “protection against LT after UV irradiation and washout (media exchange)” value (from here on “protection against LT … (media exchange)”) [4] read?
**A.** retained viability; also recorded: statistically significant protection; also recorded: conferred irreversible resistance to LT

**Q.** And the IC50 ([5]; Mus musculus, RAW264.7)?
**A.** 2.8 µM

**Q.** What about the IC50 [5, 9] of the same compound?
**A.** 2.82 µM

**Q.** And the IC50 [5, 10]?
**A.** ~3 µM

**Q.** Which “influenza virus infection (reporter activation)” value [6] does the source give for `NC(=O)c1ncn([C@@H]2O[C@H](CO)[C@@H](O)[C@H]2O)n1` [ribavirin, reference compound] here?
**A.** effectively blocked reporter activation

**Q.** With bafilomycin A1 [reference compound] as the compound, how does the “phagocytic uptake of F. tularensis LVS” value [7] read?
**A.** Neither EGA nor bafilomycin A1 blocked

**Q.** What about the “trafficking of Texas-red dextran to phagosomes” value [8] of the same compound?
**A.** Neither EGA nor bafilomycin A1 inhibited

**Q.** What about the “cell-associated Lysotracker Red fluorescence (neutralization of acidic compartments)” value [3] of the same compound?
**A.** markedly decreased

**Q.** With `Cc1cccc(C)c1NC(=O)N/N=C/c1ccc(N=[N+]=[N-])cc1F` [Compound 3, N^1-(4-AZIDO-2-FLUOROBENZYLIDENE)-N^4-(2,6-DIMETHYLPHENYL)SEMICARBAZONE] as the compound, how does the “protection against LT … (media exchange)” value [4] read?
**A.** did not provide protection; also recorded: did not offer statistically significant protection

**Q.** What about the IC50 [5, 10] of the same compound?
**A.** 2.2 µM

**Q.** Which IC50 [1] does the source give for `CCN(CC)CCCC(C)Nc1c2ccc(Cl)cc2nc2ccc(OC)cc12` (stereo not drawn) [quinacrine] here?
**A.** 40 µM

**Q.** Which results are given for `Cc1cccc(/C=N/NC(=O)Nc2c(C)cccc2C)c1` [Compound 13j, N^1-(3-METHYLBENZYLIDENE)-N^4-(2,6-DIMETHYLPHENYL)SEMICARBAZONE]?
**A.** IC50 ([5]; Mus musculus, RAW264.7): 13.4 µM; IC50 [5, 9]: 13.4 µM

**Q.** For `CCOC(=O)C1=C[C@@H](OC(CC)CC)[C@H](NC(C)=O)[C@@H](N)C1` [oseltamivir, reference compound], which “influenza virus infection (reporter activation)” value [6] is on record?
**A.** exhibited no protection

**Q.** Which results are given for `Cc1cccc(C)c1NC(=S)N/N=C/c1ccc(Br)cc1` [Compound 19a, N^1-(4-BROMOBENZYLIDENE)-N^4-(2,6-DIMETHYLPHENYL)THIOSEMICARBAZONE]?
**A.** IC50 ([5]; Mus musculus, RAW264.7): 1.52 µM; IC50 [5, 9]: 1.52 µM; IC50 [5, 10]: 1.5 µM

**Q.** With `C#CCN(/N=C/c1ccc(N=[N+]=[N-])cc1)C(=O)Nc1c(C)cccc1C` [Compound 28, 2-(4-Azidobenzylidene)-N-(2,6-dimethylphenyl)-1-(prop-2-yn-1-yl)hydrazinecarboxamide] as the compound, how does the “protection of cells from LT (in words)” value [5] read?
**A.** did not offer any protection

**Q.** And the IC50 ([5]; Mus musculus, RAW264.7)?
**A.** > 25 µM

**Q.** Which results are given for `Cc1cccc(C)c1NC(=O)N/N=C/c1ccc(Br)o1` [Compound 13v, N^1-(5-BROMOFURAN-2-YLMETHYLENE)-N^4-(2,6-DIMETHYLPHENYL)SEMICARBAZONE]?
**A.** IC50 [5]: > 25 µM; IC50 ([5]; Mus musculus, RAW264.7): > 25 µM

**Q.** For `CCN(CC)CCCC(C)Nc1ccnc2cc(Cl)ccc12` (stereo not drawn) [chloroquine], which IC50 [1] is on record?
**A.** 100 µM

**Q.** For `Cc1ccc(/C=N/NC(=O)Nc2c(C)cccc2C)cc1F` [Compound 13d, N^1-(3-FLUORO-4-METHYLBENZYLIDENE)-N^4-(2,6-DIMETHYLPHENYL)SEMICARBAZONE], which IC50 ([5]; Mus musculus, RAW264.7) is on record?
**A.** 1.8 µM

**Q.** And the IC50 [5, 9]?
**A.** 1.81 µM

**Q.** Which results are given for `Cc1ccccc1/C=N/NC(=O)Nc1c(C)cccc1C` [Compound 13i, N^1-(2-METHYLBENZYLIDENE)-N^4-(2,6-DIMETHYLPHENYL)SEMICARBAZONE]?
**A.** IC50 ([5]; Mus musculus, RAW264.7): > 25 µM; IC50 [5, 9]: > 25 µM

**Q.** With `Cc1cccc(C)c1NC(=O)NN` [Compound 6, N-(2,6-DIMETHYLPHENYL) SEMICARBAZIDE] as the compound, how does the “protection of cells from LT (in words)” value [5] read?
**A.** did not prevent toxin-induced cell death

**Q.** For `Cc1cccc(C)c1NC(=O)NNCc1ccc(Br)cc1` [Compound 14, 2-(4-BROMOBENZYL)-N-(2,6-DIMETHYLPHENYL)HYDRAZINECARBOXAMIDE], which “protection of cells from LT (in words)” value [5] is on record?
**A.** not protective

**Q.** What about the IC50 ([5]; Mus musculus, RAW264.7) of the same compound?
**A.** > 25 µM

**Q.** What about the IC50 [5, 9] of the same compound?
**A.** > 25 µM

**Q.** Which IC50 ([5]; Mus musculus, RAW264.7) does the source give for `C#CCN(/N=C/c1ccc(Br)cc1)C(=O)Nc1c(C)cccc1C` [Compound 17, 2-(4-BROMOBENZYLIDENE)-N-(2,6-DIMETHYLPHENYL)-1-(PROP-2-YN-1-YL)HYDRAZINECARBOXAMIDE] here?
**A.** > 12.5 µM

**Q.** What about the IC50 [5, 10] of the same compound?
**A.** > 12.5 µM

**Q.** Which IC50 ([5]; Mus musculus, RAW264.7) does the source give for `Cc1cccc(C)c1NC(=O)N/N=C/c1ccc(Br)cc1Cl` [Compound 13z, N^1-(4-BROMO-2-CHLOROBENZYLIDENE)-N^4-(2,6-DIMETHYLPHENYL)SEMICARBAZONE] here?
**A.** 3.2 µM

**Q.** What about the IC50 [5, 9] of the same compound?
**A.** 3.24 µM

**Q.** Which IC50 [5] does the source give for `CCc1cccc(CC)c1NC(=O)N/N=C/c1ccc(Br)cc1` [Compound 9c, N^1-(4-BROMOBENZYLIDENE)-N^4-(2,6-DIETHYLPHENYL)SEMICARBAZONE] here?
**A.** > 12.5 µM

**Q.** And the IC50 ([5]; Mus musculus, RAW264.7)?
**A.** 16.7 µM

**Q.** What about the IC50 [5, 9] of the same compound?
**A.** > 12.5 µM

**Q.** What about the IC50 [5, 10] of the same compound?
**A.** > 12.5 µM

**Q.** Which “protection against LT … (media exchange)” value [4] does the source give for `Cc1cccc(C)c1NC(=O)N/N=C/c1c(F)c(F)c(N=[N+]=[N-])c(F)c1F` [Compound 5, N^1-(4-AZIDO-2,3,5,6-TETRAFLUOROBENZYLIDENE)-N^4-(2,6-DIMETHYLPHENYL)SEMICARBAZONE] here?
**A.** statistically significant protection; also recorded: most effective irreversible protection; also recorded: conferred irreversible resistance to LT

**Q.** What about the “protection of cells from LT (in words)” value [5] of the same compound?
**A.** poor inhibitor; also recorded: only weakly protective

**Q.** Which IC50 ([5]; Mus musculus, RAW264.7) does the source give for `C/C(=N\NC(=O)Nc1c(C)cccc1C)c1ccc(Br)cc1` [Compound 15, N^1-(4-BROMOPHENYLETHYLIDENE)-N^4-(2,6-DIMETHYLPHENYL)SEMICARBAZONE] here?
**A.** 2.5 µM

**Q.** What about the IC50 [5, 9] of the same compound?
**A.** 2.5 µM

**Q.** What about the IC50 [5, 10] of the same compound?
**A.** 2.5 µM

**Q.** Which “protection of cells from LT (in words)” value [5] does the source give for `O=C(N/N=C/c1ccc(Cl)cc1)Nc1ccccc1` [Compound 11, N^1-(4-Cl-benzylidene)-N^4-phenylsemicarbazone, reference compound] here?
**A.** not protective

**Q.** What about the IC50 ([5]; Mus musculus, RAW264.7) of the same compound?
**A.** > 25 µM
